According to US20070043013A1, “1,3 Disubstituted azetidine derivatives for use as ccr-3 receptor antagonists in the treatment of inflammatory and allergic diseases” (priority 2003, published 2007):

Tests used:
[1] = molecular target: histamine H1 (Homo sapiens, UniProt P35367); test: histamine H1 antagonism
[2] = molecular target: alpha-1 adrenergic receptor; test: alpha-1 adrenergic receptor radioligand binding assay ([125I]-HEAT, rat cerebral cortex membranes); conditions: radioligand used at 40 pM
Description: The inhibitory properties of agents of the invention on binding of the alpha-1 adrenergic receptor can be determined in the following assay:
Cerebral cortices from male Sprague-Dawley rats (175-200 g) are dissected and homogenised in 10 volumes of ice cold 0.32 M sucrose (containing 1 mM MgCl2 dihydrate and 1 mM K2HPO4) with a glass/Teflon homogeniser. The membranes are centrifuged at 1000×g for 15 miN, the pellet discarded and the centrifugation repeated. The supernatants are pooled and centrifuged at 18,000×g for 15 minutes. The pellet is osmotically shocked in 10 volumes of water and kept on ice for 30 minutes. The suspension is centrifuged at 39,000×g for 20 minutes, resuspended in Krebs-Henseleit buffer pH 7.4 (1.17 mM MgS04 anhydrous, 4.69 mM KCl, 0.7 mM K2HPO4 anhydrous, 0.11 M NaCl, 11 mM D-glucose and 25 mM NaHCO3) containing 20 mM Tris, and kept for 2 days at −20° C. The membranes are then thawed at 20-23° C., washed three times with Krebs-Henseleit buffer by centrifugation at 18,000×g for 15 minutes, left overnight at 4° C. and washed again three times. […]
The resulting membranes are subjected to a radioligand binding assay. […] Following drying of the plates for 3 h. at 50° C., 40 μl of Microscint 20 is added to each well, the plates incubated at room temperature for a further 20 minutes and the retained radioactivity quantified in a Packard TopCount NXT™ scintillation counter. […]

histamine H1, sequence (P35367 whole entry): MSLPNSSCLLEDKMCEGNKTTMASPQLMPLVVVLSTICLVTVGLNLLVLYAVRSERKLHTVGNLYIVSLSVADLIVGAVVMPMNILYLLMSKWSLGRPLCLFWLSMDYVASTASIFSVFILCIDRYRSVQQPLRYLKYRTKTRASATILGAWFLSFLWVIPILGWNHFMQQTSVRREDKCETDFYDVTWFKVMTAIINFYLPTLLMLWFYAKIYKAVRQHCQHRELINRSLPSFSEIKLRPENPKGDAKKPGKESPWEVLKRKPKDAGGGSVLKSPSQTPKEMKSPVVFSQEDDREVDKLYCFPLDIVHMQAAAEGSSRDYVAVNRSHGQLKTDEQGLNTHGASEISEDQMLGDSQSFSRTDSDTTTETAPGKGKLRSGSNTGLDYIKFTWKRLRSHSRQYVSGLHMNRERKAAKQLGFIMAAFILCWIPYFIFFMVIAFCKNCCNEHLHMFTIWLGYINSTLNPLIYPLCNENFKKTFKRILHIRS

| SMILES | histamine H1 antagonist activity [1] | Kd [2] [pM] |
| --- | --- | --- |
| CCc1nnc(NC(=O)N[C@@H]2CCCC[C@@H]2CN2CC(Oc3ccc(Cl)cc3)C2)s1 (racemic) [Example 31, (+/−)1-{(1R,2R)-2-[3-(4-Chloro-phenoxy)-azetidin-1-yl-methyl]-cyclohexyl}-3-(5-ethyl-[1,3,4]thiadiazol-2-yl)-urea] | histamine H1 antagonists | – |
| CCc1nnc(NC(=O)N[C@H](CO)CCN2CC(Sc3ccc(Cl)cc3)C2)s1 [Example 19, 1-{(S)-3-[3-(4-Chloro-phenylsulfanyl)-azetidin-1-yl]-1-hydroxymethyl-propyl}-3-(5-ethyl-[1,3,4]thiadiazol-2-yl)-urea] | histamine H1 antagonists | – |
| O=C1c2ccccc2CCC1CNCCc1ccc(O)c(I)c1 (stereo not drawn) [[^125I]-HEAT] | – | 58.9 ± 18.7 |
